Our source for the IC50 values is ChEMBL document CHEMBL1124501, “Novel cytotoxic compounds from the ascidian Lissoclinum bistratum” (J Med Chem, 1989).

Values after ≈ are worked out from the molar mass of the structure shown.

Holding throughout (assay type): functional, cell-based
The subject of one test is P388. In words: Cytotoxicity in vitro against P388 cell line. The note with it: Mus musculus.
Another test concerns MRC5CV1. Kind of test: Cytotoxicity evaluated by incorporation of [methyl-3H]thymidine into human MRC5CV1, a control fibroblast cell line.
In test [1] the test system is T-24. Kind of test: Cytotoxicity evaluated by incorporation of [methyl-3H]thymidine into human T24, a bladder carcinoma cell line.
Test [2] relates to T-24. In words: Cytotoxicity evaluated by incorporation of [methyl-3H]thymidine into human T24, a bladder carcinoma cell line.

Consider `CCC/C=C/C=C/C(=O)O[C@H]1/C(=C/C(=O)OC)C[C@H]2CC([C@@H](C)O)OC(=O)C[C@H](O)C[C@@H]3C[C@H](OC(C)=O)C(C)(C)[C@](O)(C[C@@H]4C/C(=C/C(=O)OC)C[C@H](/C=C/C(C)(C)[C@]1(O)O2)O4)O3` (some centres undefined) [BRYOSTATINS], for which half-maximal inhibition in the test on P388 (IC50) was put at 0.89 µg/mL (≈ 0.983 µM).
In the case of `C/C=C/C(=O)CC1CCC2(O)CC(C)C(CCCNC(=O)C(C)C3CNC(=O)CC(O1)C(C)CCCCC(CCC(C)/C=C(\C)C(C)O)O3)O2` (centres undefined) [BISTRATENE A], the IC50 with MRC5CV1 and in the test on T-24 [1] was 0.07 µg/mL (≈ 0.0993 µM) throughout.
For the molecule `C/C=C/C(=O)CC1CCC2(O)CC(C)C(CCCNC(=O)C(C)C3CNC(=O)CC(O1)C(C)CCCCC(CCC(C)/C=C(\C)C(C)OC(C)=O)O3)O2` (centres undefined) [BISTRATENE B], the IC50 in the test with MRC5CV1 and with T-24 [1] was 0.09 µg/mL (≈ 0.12 µM) each time.
On to `CC(C)[C@@H]1NC(=O)C2CSC(=N2)[C@H](Cc2ccccc2)NC(=O)C2CSC(=N2)[C@@H](C)NC(=O)[C@H]2N=C1O[C@@H]2C` [BISTRATAMIDE A], for which the IC50 (commonly the concentration at which inhibition is half-maximal) with MRC5CV1 was 50 µg/mL (≈ 87.6 µM); with T-24 [1] it was 0.07 µg/mL (≈ 0.123 µM).
In the case of `CC(C)[C@@H]1NC(=O)c2csc(n2)[C@H](Cc2ccccc2)NC(=O)C2CSC(=N2)[C@@H](C)NC(=O)[C@H]2N=C1O[C@@H]2C` [BISTRATAMIDE B], the values for the IC50 with T-24 [2] and in the test with MRC5CV1 were 0.09 µg/mL (≈ 0.158 µM) and above 100 µg/mL, respectively.
